Measurements from article PMC8880997, “Structure and ion-release mechanism of PIB-4-type ATPases” (eLife, 2021).

Columns and labels:
[1] = biological target: T1, sCoaT (Sulfitobacter sp. NAS-14.1, UniProt A0ABF7PH95); assay: X-ray crystallography, […]-3.[…] Å; type: binding; parameters: gene NAS141_02821; residues before about 40-47 not modelled; settings: phosphate analogue at the phosphorylation site; formed from AlCl3 and NaF with EGTA, metal-free; E2.Pi state
T1 sequence (A0ABF7PH95 1-682): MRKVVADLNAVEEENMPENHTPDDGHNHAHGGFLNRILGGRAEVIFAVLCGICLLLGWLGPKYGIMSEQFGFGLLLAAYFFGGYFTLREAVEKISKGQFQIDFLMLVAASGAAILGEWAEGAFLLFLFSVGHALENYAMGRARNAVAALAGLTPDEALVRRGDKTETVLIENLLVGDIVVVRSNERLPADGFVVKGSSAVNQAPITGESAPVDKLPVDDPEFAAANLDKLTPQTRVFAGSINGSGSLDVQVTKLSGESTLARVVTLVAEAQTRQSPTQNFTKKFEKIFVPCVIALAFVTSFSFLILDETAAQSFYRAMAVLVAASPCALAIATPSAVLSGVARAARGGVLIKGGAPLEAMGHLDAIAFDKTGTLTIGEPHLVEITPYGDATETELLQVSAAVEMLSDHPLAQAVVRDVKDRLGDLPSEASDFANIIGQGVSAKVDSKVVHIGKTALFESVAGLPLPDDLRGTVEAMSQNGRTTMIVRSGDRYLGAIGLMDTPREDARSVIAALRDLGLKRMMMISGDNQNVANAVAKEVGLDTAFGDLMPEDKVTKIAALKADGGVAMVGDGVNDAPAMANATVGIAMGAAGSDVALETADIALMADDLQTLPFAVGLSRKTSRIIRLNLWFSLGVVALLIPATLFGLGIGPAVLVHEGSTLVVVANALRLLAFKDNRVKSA

[2] = biological target: T2, SsZntA (Shigella sonnei, UniProt Q3YW59); assay: Baginski ATPase assay (Pi release) in lipid-detergent; type: biochemical; settings: 5 mM ATP, Zn2+ or Cd2+, 5 mM MgCl2, Tris-HCl pH 7.5, 37 °C; KCl titration
T2 construct: gene zntA; purified as in Wang et al., 2014
T2 sequence (Q3YW59 1-732): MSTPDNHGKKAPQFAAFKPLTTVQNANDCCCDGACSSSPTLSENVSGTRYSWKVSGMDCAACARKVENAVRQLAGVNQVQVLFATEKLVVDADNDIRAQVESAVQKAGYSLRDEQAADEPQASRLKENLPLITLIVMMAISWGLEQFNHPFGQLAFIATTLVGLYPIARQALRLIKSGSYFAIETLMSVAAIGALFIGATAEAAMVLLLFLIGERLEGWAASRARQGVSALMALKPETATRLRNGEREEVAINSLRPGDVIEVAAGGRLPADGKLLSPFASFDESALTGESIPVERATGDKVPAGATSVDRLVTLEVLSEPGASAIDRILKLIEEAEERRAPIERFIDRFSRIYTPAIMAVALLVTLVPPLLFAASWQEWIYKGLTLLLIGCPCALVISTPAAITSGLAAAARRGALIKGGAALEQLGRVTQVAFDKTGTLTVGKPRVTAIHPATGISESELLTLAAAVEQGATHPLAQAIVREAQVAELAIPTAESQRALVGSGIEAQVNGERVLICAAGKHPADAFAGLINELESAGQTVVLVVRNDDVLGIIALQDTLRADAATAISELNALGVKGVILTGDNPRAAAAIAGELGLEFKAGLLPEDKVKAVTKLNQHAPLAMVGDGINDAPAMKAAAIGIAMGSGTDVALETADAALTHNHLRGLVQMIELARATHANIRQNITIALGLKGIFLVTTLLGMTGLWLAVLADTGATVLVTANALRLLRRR

[3] = biological target: T1, sCoaT; parameters: gene NAS141_02821; settings: phosphate analogue at the phosphorylation site; formed from BeSO4 and NaF with EGTA, metal-free; late E2P state

`[F][Al-]([F])([F])[F]` [AlF4^−] was tested, and the “X-ray crystallography, 3.2-3.3 Å” value [1] was “structures of sCoaT in metal-free conditions supplemented with two different phosphate analogues, BeF3^− and AlF4^−”.
In the case of `Nc1ncnc2c1ncn2[C@@H]1O[C@H](COP(=O)(O)OP(=O)(O)OP(=O)(O)O)[C@@H](O)[C@H]1O` [ATP], the “Baginski ATPase assay (Pi release) in lipid-detergent” value [2] is reported as “Functional ATPase assay in lipid–detergent solution of sCoaT (wild-type and D601K forms) as well as SsZntA”.
With `[F][Be-]([F])[F]` [BeF3^−] the “X-ray crystallography, 3.1 Å” value [3] was “structures of sCoaT in metal-free conditions supplemented with two different phosphate analogues, BeF3^− and AlF4^−”.
